In PMC2981508 (Science (New York, N.Y.), 2009):
Residue numbers refer to the chain shown, from its start.

Legend:
VP16-AR fusion protein = format: cell-based; conditions: Cos-7 cells, 24 hours
[1] = test system: DU145 prostate cancer xenografts; assay: AR-negative DU145 prostate cancer xenografts; design: species or system mice; conditions: mouse, in vivo
[2] = test system: AR recruitment to PSA enhancer and TMPRSS2 enhancer in parental LNCaP cells; assay: Chromatin immunoprecipitation of AR in parental LNCaP cells; format: cell-based, human
AR [3] = biological target: T1, AR (Homo sapiens, UniProt P10275); assay: in vitro studies of AR activity; format: cell-based
T1 sequence (P10275 1-920): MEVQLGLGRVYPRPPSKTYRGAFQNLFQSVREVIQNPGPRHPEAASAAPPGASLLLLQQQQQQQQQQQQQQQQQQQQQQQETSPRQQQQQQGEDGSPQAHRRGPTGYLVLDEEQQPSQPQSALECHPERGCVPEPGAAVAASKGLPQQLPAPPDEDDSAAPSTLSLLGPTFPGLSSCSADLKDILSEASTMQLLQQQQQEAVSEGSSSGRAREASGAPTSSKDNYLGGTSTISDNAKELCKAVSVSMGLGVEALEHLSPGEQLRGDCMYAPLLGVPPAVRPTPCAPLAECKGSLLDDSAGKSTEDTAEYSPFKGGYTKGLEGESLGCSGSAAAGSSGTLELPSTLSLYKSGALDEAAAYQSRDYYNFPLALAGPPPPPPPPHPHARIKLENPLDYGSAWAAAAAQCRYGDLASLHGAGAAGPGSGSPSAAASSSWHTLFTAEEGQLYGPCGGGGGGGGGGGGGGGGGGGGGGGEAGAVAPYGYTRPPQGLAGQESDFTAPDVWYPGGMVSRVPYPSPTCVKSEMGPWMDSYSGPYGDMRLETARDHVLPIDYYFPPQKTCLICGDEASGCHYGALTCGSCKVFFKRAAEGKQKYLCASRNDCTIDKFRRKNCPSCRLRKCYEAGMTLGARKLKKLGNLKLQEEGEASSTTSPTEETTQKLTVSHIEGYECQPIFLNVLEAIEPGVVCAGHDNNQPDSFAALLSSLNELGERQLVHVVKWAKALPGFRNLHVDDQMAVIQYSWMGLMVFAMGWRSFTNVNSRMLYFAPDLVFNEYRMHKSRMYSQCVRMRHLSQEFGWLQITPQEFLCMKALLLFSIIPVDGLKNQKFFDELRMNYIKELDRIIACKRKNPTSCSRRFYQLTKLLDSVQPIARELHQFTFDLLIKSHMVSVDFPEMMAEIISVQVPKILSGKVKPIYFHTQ

AR [4] = format: cell-based; conditions: in vitro
estrogen receptor = assay: in vitro fluorescence polarization binding assay
VCaP cells = assay: VCaP cell proliferation; format: cell-based, human; conditions: 1 and 10 μM, media containing FBS
[5] = test system: AR target genes PSA and TMPRSS2 in LNCaP/AR cells; assay: qRT-PCR of AR-dependent genes in LNCaP/AR cells; format: cell-based, human; conditions: androgen-depleted media 5% CSS, 8 hours, 1 and 10 μM
[6] = biological target: T2, mutant AR protein (W741C) (Homo sapiens, UniProt P10275, W742C); format: cell-based
T2 sequence (P10275 1-920 W742C): T1 sequence (P10275 1-920) with W742C

[7] = Plasma levels in LNCaP/AR tumor-bearing mice; conditions: 10 mg/kg oral daily, 20 hours after the final dose on day 28

Compound: CNC(=O)c1ccc(N2C(=S)N(c3ccc(C#N)c(C(F)(F)F)c3)C(=O)C23CCC3)cc1F [RD162]
- Activation of VP16-AR (VP16-AR fusion protein): neither RD162 nor MDV3100 activated VP16-AR
- growth of AR-negative DU145 xenografts [1]: neither bicalutamide nor RD162 impaired the growth
- AR recruitment to PSA enhancer and TMPRSS2 enhancer [2]: Neither RD162 nor MDV3100 recruited AR
- concentrations expected to block AR activity based on the in vitro studies (AR [3]): 1 to 10 µM
- effects on AR protein expression (AR [4]): no obvious changes
- binding to estrogen receptor (estrogen receptor): little to no binding
- Growth of VCaP cells (VCaP cells): suppressed growth
- Expression of AR target genes PSA and TMPRSS2 (agonist activity) [5]: do not have agonist activity
- Transcriptional activity of mutant AR (W741C) [6]: inhibited the transcriptional activity
- Plasma levels (mean) [7]: 24 µM
